Key:
Type in all cases: cell-based
[1] = tested on: Rabbit corneal endothelial cells (RCEC); test: Proliferation of rabbit corneal endothelial cells (Ki-67 antibody staining); details: rabbit CEC, 10 nM to 200 nM, DMEM/F12 0.5% FBS, 24 hours
Excerpt: (§1) Rabbit corneal endothelial cells (RCEC) and human corneal endothelial cells along with the Decemet's membrane were isolated from normal eyes (National Disease Research Interchange (NDRI), Philadelphia, Pa.), and the cells were suspended in Dulbecco's Modified Eagle Medium/Nutrient Mixture F-12 (DMEM/F12; GIBCO®, Grand Island, N.Y.) supplemented with 15% fetal bovine serum (FBS; GIBCO®), and seeded in 12-well plates. Cell phenotype was identified by using the endothelial cell marker anti-ZO-1 antibody (anti-zonula occludins-1 antibody) (Zymed Laboratories, Inc., San Francisco, Calif.). The localization of the lipoxin A4 (LXA4) receptor was detected with the polyclonal antibody FPRL1 (formyl peptide receptor-like 1; sc-13193, Santa Cruz Biotechnology, Inc., Santa Cruz, Calif.) (FIG. 1). […] The same was found with human endothelial cells. (Data not shown) This is the first time such receptor has been reported in cornea endothelial cells.
Proliferation of cornea endothelial cells was evaluated with anti-Ki-67 antibody (Zymed Laboratories, Inc., San Francisco, Calif.). Rabbit CEC cells were grown at 60-70% confluence, starved for 24 hours, and then treated with 15-epimer-lipoxin A4 (Calbiochem, Madison, Wis.) at different concentrations from 10 nM to 200 nM in DMEM/F12 containing 0.5% FBS for 24 hours. […] In addition, a similar experiment was conducted using lipoxin A4.

[2] = tested on: human corneal endothelial cells; test: Cell migration in a wound of human corneal endothelial cells; details: human CEC, 100 nM, at 48 hours, p<0.05
Description: (§2) Human eyeballs were obtained from NDRI (National Disease Research Interchange, Philadelphia, Pa.) and shipped to the laboratory on ice. The corneas were excised along the sclerocorneal rim, and the endothelia together with the Decemet's membrane were removed with tooth-free fine forceps under a dissection microscope. Pieces of the endothelia were seeded in DMEM/F12 (GIBCO®, Grand Island, N.Y.) supplemented with 15% FBS in 12-well plates. Cell phenotypes were identified and confirmed by using the endothelial cell marker anti-ZO-1 antibody (Zymed Laboratories, Inc., San Francisco, Calif.). […] This method of cell culture was used to establish cell cultures from several human eyeballs.
A secondary passage of human corneal endothelial cells derived from a donor was obtained as described above in Example 4. The cells were grown to 70% confluence in 24-well plate, and then starved for 24 hours. […] Wound healing was determined by phase contrast images collected by a camera attached to the microscope, and the result shown in FIG. 6B. The width of wound was calculated using Metavue Image software. The degree of cell migration was quantified by measuring the width of the wounded area at 24 and 48 hours, and the data shown in FIG. 6A. […]

[3] = tested on: Rabbit corneal endothelial cells (RCEC); test: In vitro wound closure in confluent rabbit corneal endothelial cells; details: 10 nM and 100 nM, 24 hours
Excerpt: as §1
To measure in vitro wound closure, 12-day cultures of completely confluent RCEC in 12-well plates were wounded by linear scraping with a sterile plastic tip in the center of the well. Cells were incubated for 24 hours in DMEM/F12 with or without 15-epimer lipoxin A4 at 10 nM and 100 nM concentrations. The width of wound was calculated using Metavue Image software. […]

[4] = tested on: human corneal endothelial cells; test: Proliferation of cultured human corneal endothelial cells (Ki-67 immunofluorescence); details: human CEC, second passage, 100 nM, 24 hours
Description: as §2
A secondary passage of human corneal endothelial cells derived from a donor was obtained as described above in Example 4. The cells were grown to 70% confluence in 24-well plate, and then starved for 24 hours. The starved cells were then incubated in DMEM/F12 containing 0.5% FBS with or without 15-epimer LxA4 (100 nM; from Calbiochem, Madison, Wis.) for 24 hours. […] Based on the rabbit studies above, it is believed that lipoxin A4 and its other analogs would show similar results as the 15-epimer lipoxin A4 used in these experiments.

CCCCC[C@@H](O)/C=C/C=C\C=C\C=C\[C@@H](O)[C@@H](O)CCCC(=O)O [15-epimer lipoxin A4]
number of cells with Ki-67 staining (proliferation) [1]: increases with the concentration | cell migration (width of the wounded area) [2]: significant increase in cell migration | wound healing (width of wound) [3]: promoted wound healing | cell proliferation (percentage of Ki-67-positive cells versus total cells) [4]: significant increase

CCCCC[C@H](O)/C=C/C=C\C=C\C=C\[C@@H](O)[C@@H](O)CCCC(=O)O [lipoxin A4]
number of cells with Ki-67 staining (proliferation) [1]: the same, both qualitatively and quantitatively | wound healing (width of wound) [3]: the same, both qualitatively and quantitatively

Reference: patent US8729128B2, “Lipoxin A4 protection for cornea endothelial cells” (Board of Supervisors of Louisiana State University And …, priority 2007, dated 2014)
